Experimental data: patent publication US20070219159A1, “CYCLODEXTRIN COMPOSITIONS AND METHODS OF TREATING VIRAL INFECTIONS” (priority 2002, published 2007)
Read-outs that look alike come from different tables or passages of the source.

What was measured:
[1] = tested on: dlsptk (an ACV-resistant, tk deletion mutant of HSV-1); assay type: cell-based; settings: MOI 10
Aqueous solubility = assay type: physicochemical
HCV = experiment: In vitro anti-HCV assay in HCV RNA-replicating cell line AVA5; assay type: cell-based; settings: HCV
Protocol: The antiviral activity of test compounds were assayed in the stably HCV RNA-replicating cell line. AVA5, derived by transfection of the human hepatoblastoma cell line, Huh^7 (Blight et al., 2000). Experimental drugs were added to dividing cultures once daily for three days. Media was changed with each addition of compound. Cultures generally started the assays at 50% confluence and reached confluence during the last day of treatment. HCV RNA and cellular β-actin RNA levels were assessed 24 hours after the last dose of compound using dot blot hybridization. Assays were conducted using a single dose of test compound (in triplicate cultures).
Both HCV and β-actin RNA levels in the treated cultures were expressed as a percentage of the mean levels of RNA detected in untreated cultures. β-actin RNA levels were used both as a measure of toxicity, and to normalize the amount of cellular RNA in each sample. A level of 30% or less HCV RNA (relative to control cultures) was considered to be a positive antiviral effect, and a level of 50% or less β-actin RNA (relative to control cultures) is considered to be a cytotoxic effect.
Dividing cultures of AVAB cells were treated once daily for three days (media was changed with each addition of compound) with 4 concentrations of test compounds (3 cultures per concentration). A total of 6 untreated control cultures, and triplicate cultures treated with 10, 3, and 1 IU/ml α-interferon (active antiviral with no cytotoxicity), and 100, 10, and 1 μM ribavir ([…]) served as controls. HCV RNA and cellular β-actin FNA levels were assessed 24 hours after the last dose of compound using dot blot hybridization. β-actin RNA levels were used to normalize the amount of cellular RNA in each sample.
Toxicity analyses were performed on separate plates from those used for the antiviral assays. Cells for the toxicity analyses were cultured and treated with test compounds with the same schedule and under identical culture conditions used for the antiviral evaluations. Each compound was tested at 4 concentrations, each in triplicate cultures. Uptake of neutral red dye was used to determine the relative level of toxicity 24 hours following the last treatment. The absorbance of internalized dye at […] (A510) was used for the quantitative analysis. Values in test cultures were compared to 9 cultures of untreated cells maintained on the same plate as the test cultures.
Assays similar to those described above were conducted.

d27-lacZ1 (β-gal HSV) = experiment: Semi-quantitative PCR of intracellular HSV DNA (HSV entry); settings: MOI 0.01 or 0.1, β-CD 7.2 mg/ml pre-, 5.4 mg/ml post-infection, versus untreated infected cells
HSV-1 strain KOS1.1 [2] = assay type: cell-based; settings: for yield of cell-free and cell-associated virus: 24 hours post-infection, MOI 50, BCD 7.2 mg/ml, ACV 400 μg/ml or both, pre, during and post infection treatment (FIG. 1)
HSV-2 strain MS = experiment: CPE reduction assay in Vero cells, HSV-2; assay type: cell-based
Vero cells = experiment: Cell viability by LDH release assay; assay type: cell-based; settings: 48 hours
Protocol: FIG. 3 depicts the effects of ACV alone (400 μg/ml) and β-CD alone (8 mg/ml) on the viability of Vero cells as monitored by the LDH release assay after 24 hours of treatments (A); and after 48 hours of treatments (B). All data represents means+SD of two separate experiments.
Cell viability assay. Cell viability was determined fluorometrically by estimating the release of LDH into the media (Moran and Schnellman, 1996). LDH activity was based on the reduction of pyruvate to lactate. The concomitant oxidation of NADH results in a decrease in the fluorescence emission at 450 nm with excitation wavelength 355 nm, and the rate of disappearance of NADH is indicative of LDH activity.
To study the effects of formulations on viability of preformed monolayers, 3 to 4×10^6 Vero cells were added to 1× MEM-5% FBS in T75 flasks. […] Used media were replaced with 15 ml of treatment media, containing 5× MEM-FBS diluted to 1× with water (control), acyclovir stock (400 μg/ml), or β-CD stock (8 mg/ml in water). […]
Reaction solution was made fresh for each experiment by mixing 0.4 ml of 16.2 mM pyruvate with 10 ml of 0.2 mM NADH in phosphate buffer (pH 7.5). […] The amount of LDH calculated for either condition was then compared with and expressed as a percentage of the total LDH present.
Used media were replaced with 15 ml/flask or 2.5 ml/well of treatment media, containing 5× MEM-FBS diluted to 1× with water (control), and […]CD stock. […] Live cells are distinguished by the presence of intracellular esterase activity, as determined by the enzymatic conversion of calcein-AM (nonfluorescent) to calcein (green fluorescence). EthD-1 enters cells with damaged cell membranes and binds to nucleic acids producing red fluorescence to identify dead cells. […] For LDH assays, cells were trypsinized, resuspended in fresh 1× medium, kept at 37° C.-5% CO2 atmosphere, and total LDH present in cells and medium was determined after lysing the cells with 350 μM digitonin. The amount of LDH calculated for either condition was then compared with and expressed as a percentage of the total LDH present. […]

HSV-1 strain KOS1.1 [3] = experiment: CPE reduction assay in Vero cells, HSV-1; assay type: cell-based

In the case of `OC[C@H]1O[C@@H]2O[C@H]3[C@H](O)[C@@H](O)[C@@H](O[C@H]4[C@H](O)[C@@H](O)[C@@H](O[C@H]5[C@H](O)[C@@H](O)[C@@H](O[C@H]6[C@H](O)[C@@H](O)[C@@H](O[C@H]7[C@H](O)[C@@H](O)[C@@H](O[C@H]8[C@H](O)[C@@H](O)[C@@H](O[C@H]1[C@H](O)[C@H]2O)O[C@@H]8CO)O[C@@H]7CO)O[C@@H]6CO)O[C@@H]5CO)O[C@@H]4CO)O[C@@H]3CO` [BCD, β-cyclodextrin], the “reduction of ACV-resistant virus yield” value ([1]; 6.4 mg/ml BCD, 24 hours) is reported as “approximately 10^3 PFU”, the “effect on yield of acyclovir-resistant dlsptk virus (FIG. 2)” value ([1]; 20 μM (4.5 μg/ml) ACV or 6.4 mg/ml β-CD for 24 hours) is reported as “lowered the yield” and the solubility (Aqueous solubility; read-out: concentration at which solubility becomes a limiting issue) is reported as > 8000 µg/mL. The solubility (Aqueous solubility; water, read-out: concentrations at which insoluble in water) was > 10000 µg/mL, the “S.I. for HCV” value (HCV) was 1.13 and the “amount of intracellular viral DNA / viral entry” value (d27-lacZ1 (β-gal HSV)) was “did not significantly alter viral entry”. For the same compound, the “amount of intracellular viral DNA / viral entry” value (d27-lacZ1 (β-gal HSV); listed as β-CD) was “No significant differences”, the “reduction of KOS1.1 virus yield at 24 hours” value (HSV-1 strain KOS1.1 [2]; 6.4 mg/ml BCD, MOI 10, post-infection treatment) was “approximately 10^3 fold” and the “yield of cell-free and cell-associated virus” value (HSV-1 strain KOS1.1 [2]) was “more effective at reducing virus numbers than ACV alone”. The “yield of cell-free and cell-associated virus” value (HSV-1 strain KOS1.1 [2]; listed as β-CD) was “reduced to a greater extent by β-CD than by a fairly high concentration of acyclovir”, the “effect on yield of acyclovir-sensitive HSV KOS1.1 (FIG. 2)” value (HSV-1 strain KOS1.1 [2]; MOI 10, 20 μM ACV or 6.4 mg/ml β-CD for 24 hours) was “lowered the yield” and the “protection of Vero cells by inhibition of viral CPE” value (HSV-2 strain MS; HSV-2, MOI 0.001 and 0.1, BCD 7-8 mg/ml) was “almost complete protection”. For the same compound, the “inhibition of infection, direct microscopy and crystal violet staining” value (HSV-2 strain MS; HSV-2, MOI 2.0) was “inhibited infection”, the “anti-herpes effects at high multiplicity of infection” value (HSV-2 strain MS; HSV-2, MOI >50, BCD 7-8 mg/ml) was “exhibited anti-herpes effects” and the “cell viability (LDH assay)” value (Vero cells; 8.0 mg/ml BCD) was 68.57%. For the same compound, the “decrease in cell viability” value (Vero cells; β-CD 8 mg/ml, Vero cells) was 30-40%, the “protection of Vero cells by inhibition of viral CPE” value (HSV-1 strain KOS1.1 [3]; HSV-1, MOI 0.001 and 0.1, BCD 7-8 mg/ml) was “almost complete protection” and the “inhibition of infection, direct microscopy and crystal violet staining” value (HSV-1 strain KOS1.1 [3]; HSV-1, MOI 2.0 (data not shown)) was “inhibited infection”. For the same compound, the “anti-herpes effects at high multiplicity of infection” value (HSV-1 strain KOS1.1 [3]; HSV-1, MOI >50, BCD 7-8 mg/ml) was “exhibited anti-herpes effects” and the “anti-HSV activity compared with acyclovir” value (HSV-1 strain KOS1.1 [3]; β-CD 7.2 mg/ml) was “comparable to acyclovir in the range of 200 to 400 μg/ml”.
